The text below walks through data of patent EP4722228A1, “NEW COMPOUND TARGETING MUSK AND USE THEREOF” (The University of Tokyo, priority 2023, dated 2024).

The subject of test [1] is C2C12 myotubes (Agrin-induced AChR clusters). Description: Agrin-induced AChR clusters in myotubes with tyrosine kinase inhibitors. The class given is cell-based, mouse. As to conditions: 10 pM recombinant rat agrin, inhibitor (3 nM) added simultaneously, 20 hours; for MuSK inhibitory effects: presumed. From the text: The mouse myoblast-derived cell line C2C12 (CRL-1772) was purchased from the American Type Culture Collection and used. For subculture, Dulbecco's Modified Eagle Medium (DMEM, high glucose, GlutaMAX supplement, pyruvate; GIBCO) supplemented with 20% fetal bovine serum (FBS; GIBCO) was used. For passage, after the culture medium was removed by suction, adherent cells were washed with phosphate buffered saline (PBS(-)), and HBSS (GIBCO) containing no Mg^2+ and Ca^2+ and containing 0.25% trypsin and 1 mM ethylenediaminetetraacetic acid was added, and the mixture was reacted in a CO2 incubator (37°C, 5% CO2) for 5 minutes. The detached cells were collected and then centrifuged at 1000 rpm at 4°C for 5 minutes (Sorvall X4R Pro, Thermo Fisher Scientific Inc.). After the supernatant was removed by suction, the cells were suspended in fresh culture medium, and 100 µL was seeded into a 96-well plate (BioCoat Collagen I 96-well Black/Clear plate, Corning Inc.) and cultured in a CO2 incubator (37°C, 5% CO2) until reaching confluence, typically within 72 hours. Subsequently, the culture medium was removed and the first medium change was performed with DMEM containing 2% horse serum (GIBCO) for induction of myotube cell differentiation.
A differentiation medium supplemented with an appropriate amount of the homodimer of the cyclic peptide MuSK7 (MuSK7 PEG11 dimer) was prepared in advance in a 96-well plate (Nunclon Δ Surface, 167008, Nunc), and used at 100 µL/well at the time of the second medium change in the process of inducing differentiation into myotubes. 20 hours after addition of the homodimer of the cyclic peptide MuSK7, the medium was removed, the cells were washed with PBS(-), and then fixed at room temperature for 15 minutes with PBS(-) containing 4% formaldehyde. After washing several times with 1% BSA-PBS(-), fluorescently labeled α-bungarotoxin (α-Btx, Alexa Fluor 488 conjugate; Invitrogen) was added to 1% BSA-PBS(-) at a final concentration of 100 nM, and after adding this to the wells, the mixture was allowed to stand at room temperature under a light-shielded condition for 30 minutes. After washing the cells several times with 1% BSA-PBS(-), 100 µL of PBS(-) was added to each well, and fluorescence observation was performed using a fluorescence imaging device. For observation of fluorescently labeled AChR clusters, an EVOS M7000 imaging system (Thermo Fisher Scientific Inc.) was used. During fluorescence image observation, a 10× objective lens was used, and tiff images of an area equivalent to 1 mm^2 were obtained. […] The average number of AChR clusters counted from the three tiff images derived from the same well was calculated and drawn on a graph.
MuSK inhibitor candidates were searched in the KinaseNET database (http://www.kinasenet.ca/) published as an open resource by Kinexus Bioinformatics Corporation (Canada), and three tyrosine kinase inhibitors (AST-487, Foretinib, and Sorafenib) were identified. Next, groups were prepared in which 10 pM recombinant rat agrin protein (550-AG, R&D Systems) derived from C2C12 myotubes was added alone, or in which each tyrosine kinase inhibitor (3 nM) was added simultaneously, and detection and observation of Agrin-induced AChR clusters were performed 20 hours after compound addition (five types, Crizotinib, Linifanib, AST-1306, Dovitinib, and BMS-754807, were used as non-MuSK inhibitory tyrosine kinase inhibitors).

The next test has as its target T1, human MuSK (Homo sapiens, UniProt O15146).
T1 construct: DNA corresponding to the extracellular portion (amino acids 1-493) was amplified by a PCR method; made in house; host or cells: Expi293F cells
T1 sequence (O15146 24-493): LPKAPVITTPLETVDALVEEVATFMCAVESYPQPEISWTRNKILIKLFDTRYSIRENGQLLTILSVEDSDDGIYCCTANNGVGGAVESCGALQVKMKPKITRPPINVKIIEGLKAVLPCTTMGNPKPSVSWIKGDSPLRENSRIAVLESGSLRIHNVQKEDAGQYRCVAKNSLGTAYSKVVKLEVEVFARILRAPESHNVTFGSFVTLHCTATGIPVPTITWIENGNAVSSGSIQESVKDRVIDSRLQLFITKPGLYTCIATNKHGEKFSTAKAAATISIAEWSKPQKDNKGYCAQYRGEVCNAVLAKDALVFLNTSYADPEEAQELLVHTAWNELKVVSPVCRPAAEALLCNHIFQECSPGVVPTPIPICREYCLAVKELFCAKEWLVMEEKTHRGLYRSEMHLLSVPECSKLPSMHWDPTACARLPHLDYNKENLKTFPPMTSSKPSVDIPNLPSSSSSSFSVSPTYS
The test can be described thus: SPR binding activity test to human MuSK (Biacore). As to conditions: human MuSK, peptide homodimers. On the procedure: The human MuSK protein (extracellular portion) was prepared as a recombinant protein as follows. Using a Flexi clone (FXC31275, Promega Corporation) encoding Human MuSK isoform 1 precursor (NCBI Reference Sequence: NP_005583.1) as a template, DNA corresponding to the extracellular portion (amino acids 1-493) was amplified by a PCR method. XhoI and EcoRI restriction enzyme recognition sequences were added to both the 5' and 3' ends of the amplified DNA sequence, and these were used for insertion into the multiple cloning site of a pCAG-Neo hIgG1-Fc plasmid (Fujifilm Wako Pure Chemical Corporation). This plasmid (pCAG-Neo hMuSK-Fc) enables expression of a chimeric protein of the secretory human MuSK extracellular portion and human IgG1 Fc (hMuSK-Fc; molecular weight of approximately 200 kDa) in animal cells. In practice, ExpiFectamine 293 reagent (Invitrogen) was used to transfect the pCAG-Neo hMuSK-Fc plasmid into Expi293F cells (Invitrogen), and shaking culture was carried out (for 6 days) in an incubator containing 8% CO2. Next, the culture supernatant was collected, centrifuged, and sterilized by filtration through a 0.22 µm filter. The obtained culture supernatant was subjected to Protein G purification, and finally, a purified hMuSK-Fc sample with 99.96% purity (AKTA-FPLC analysis) was obtained.
The strength of binding between MuSK and the cyclic peptides was evaluated by quantitatively measuring the binding kinetics (binding affinity (dissociation constant) KD) of the cyclic peptides to MuSK immobilized on a sensor chip via an Fc tag, using surface plasmon resonance (SPR).
According to the standard immobilization protocol provided by the manufacturer, Fc-tagged human/mouse/rat MuSK was immobilized on a Protein G chip or a Protein A chip (Cytiva). A running buffer for the monomer/dimer peptides contained 0.010 M phosphate, 0.14 M NaCl, 0.0027 M KCl, 0.05% (v/v) Tween 20, and 0.1% (v/v) DMSO. A running buffer for the monomer/dimer U-bodies contained 0.010 M phosphate, 0.14 M NaCl, 0.0027 M KCl, and 0.05% (v/v) Tween 20. A series of concentrations of each monomer peptide, dimer peptide, monomer U-body, and dimer U-body was injected as analytes. A 1:1 binding fitting analysis was applied using Biacore evaluation software, and ka, kd, and KD values were determined.
Fc-tagged human MuSK was prepared according to the procedure described in Example 1(1). In addition, Fc-tagged mouse MuSK was used by expressing a nucleotide sequence encoding the Fc-tagged mouse MuSK extracellular domain (SEQ ID NO: 34). In addition, Fc-tagged rat MuSK was used as a chimeric protein of rat MuSK and an Fc protein, namely, Recombinant Rat MuSK Fc Chimera Protein (catalog number: 9847-MK-050, R&D Systems).
The affinity of the U-bodies and their complexes obtained as described above for MuSK of human, rat, and mouse was evaluated (binding activity test). The test was carried out according to the procedure described in Example 1(3). However, for the complexes of U-bodies, surface plasmon resonance (SPR) analysis was carried out using a Biacore 8K (Cytiva).
In general terms: SPR reads the build-up and loss of mass on a sensor chip optically.

pKd: −log10 of the molar value. Numbered stars: 1 amine (or outer) side, 2 acyl side, 3 side chain; on linkers, the order of the positions; unused ones are H or OH. Bridge positions count the residues as written; N and C are the ends. Square brackets hold non-standard residues; d marks the D form. Peptide text beside a SMILES is read from it. I, II: the chains in the order shown. X1 = O=C(CCN1C(=O)CC([*:1])C1=O)NCCOCCOCCOCCOCCOCCOCCOCCOCCOCCOCCOCCNC(=O)CCN1C(=O)CC([*:2])C1=O; X2 = O=C(CCN1C(=O)CC([*:1])C1=O)NCCCOCCOCCOCCCNC(=O)CCN1C(=O)CC([*:2])C1=O

Take `C=CC(=O)Nc1ccc2ncnc(Nc3ccc(OCc4cccc(F)c4)c(Cl)c3)c2c1` [AST-1306]: the “number of AChR clusters” value in test [1] was “comparable to that in the negative control group (DMSO alone)”.

For the compound `C[C@@]1(C(=O)Nc2ccc(F)nc2)CCCN1c1nc(Nc2cc(C3CC3)n[nH]2)c2cccn2n1` [BMS-754807], the “number of AChR clusters” value in test [1] is “comparable to that in the negative control group (DMSO alone)”.

With `C[C@@H](Oc1cc(-c2cnn(C3CCNCC3)c2)cnc1N)c1c(Cl)ccc(F)c1Cl` [Crizotinib], in test [1], the “number of AChR clusters” value is listed as “comparable to that in the negative control group (DMSO alone)”.

On to `COc1cc2c(Oc3ccc(NC(=O)C4(C(=O)Nc5ccc(F)cc5)CC4)cc3F)ccnc2cc1OCCCN1CCOCC1` [Foretinib], for which, in test [1], the MuSK inhibitory effects result is listed as “weaker MuSK inhibitory effects compared with AST-487”.

The term koff denotes a measure of how fast the partners let go of each other. For orientation: kon means the rate constant with which the complex forms. A low value points to slow association. For orientation: pKd means the negative decadic logarithm of the Kd, by convention in mol/L. For `CC[C@H](C)[C@@H]1NC(=O)[C@H](CC(N)=O)NC(=O)[C@H](C(C)C)NC(=O)[C@H](Cc2ccc(O)cc2)NC(=O)CNC(=O)[C@@H]2CCCN2C(=O)[C@H](CCC(N)=O)NC(=O)[C@H](CC(C)C)NC(=O)[C@H](Cc2ccc(O)cc2)NC(=O)[C@H](Cc2c[nH]c3ccccc23)NC(=O)[C@@H](Cc2ccc(O)cc2)NC(=O)CSC[C@@H](C(=O)N[C@@H](CSC2CC(=O)N(CCC(=O)NCCOCCOCCOCCOCCOCCOCCOCCOCCOCCOCCOCCNC(=O)CCN3C(=O)CC(SC[C@H](NC(=O)[C@@H]4CSCC(=O)N[C@H](Cc5ccc(O)cc5)C(=O)N[C@@H](Cc5c[nH]c6ccccc56)C(=O)N[C@@H](Cc5ccc(O)cc5)C(=O)N[C@@H](CC(C)C)C(=O)N[C@@H](CCC(N)=O)C(=O)N5CCC[C@H]5C(=O)NCC(=O)N[C@@H](Cc5ccc(O)cc5)C(=O)N[C@@H](C(C)C)C(=O)N[C@@H](CC(N)=O)C(=O)N[C@@H]([C@@H](C)CC)C(=O)N[C@@H](C(C)C)C(=O)N[C@@H]([C@@H](C)O)C(=O)N[C@@H](CO)C(=O)N[C@@H](Cc5ccc(O)cc5)C(=O)N[C@@H](Cc5c[nH]cn5)C(=O)N4)C(N)=O)C3=O)C2=O)C(N)=O)NC(=O)[C@H](Cc2c[nH]cn2)NC(=O)[C@H](Cc2ccc(O)cc2)NC(=O)[C@H](CO)NC(=O)[C@H]([C@@H](C)O)NC(=O)[C@H](C(C)C)NC1=O` (stereo partly shown) [MuSK9 PEG11 dimer] (I: {CH2CO}-[dY]WYLQPGYVNIVTSYHCC-NH2 / II: {CH2CO}-[dY]WYLQPGYVNIVTSYHCC-NH2; linker I:18-II:18 via X1; thioether I:N-I:17, II:N-II:17), on human MuSK, the koff was 0.0017 s⁻¹ and the kon is 440000 M⁻¹ s⁻¹. Further, the pKd on human MuSK (read-out: Kd) was 8.41.

Turning to `CNC(=O)c1cc(Oc2ccc(NC(=O)Nc3ccc(Cl)c(C(F)(F)F)c3)cc2)ccn1` [Sorafenib], the MuSK inhibitory effects result in test [1] is “weaker MuSK inhibitory effects compared with AST-487”.

As for “I: Ac-C[dY]LPEFSWPESFVLFLRQRQRQLGRGAE-NH2 / II: Ac-C[dY]LPEFSWPESFVLFLRQRQRQLGRGAE-NH2 (linker I:1-II:1 via X1) [MuSK1Ac PEG11 dimer]”, on human MuSK, the koff stood at 0.001 s⁻¹ and the kon was determined as 660000 M⁻¹ s⁻¹.

As to “I: Ac-C[dY]LPEFSWPESFVLFLRQRQRQLGRGAE-NH2 / II: Ac-C[dY]LPEFSWPESFVLFLRQRQRQLGRGAE-NH2 (linker I:1-II:1 via X2) [MuSK1Ac PEG3 dimer]”, on human MuSK, the koff amounted to 0.0013 s⁻¹ and the kon amounted to 300000 M⁻¹ s⁻¹.

Turning to “I: Ac-[dY]LPEFSWPESFVLFLRQRQRQLGRGAEC-NH2 / II: Ac-[dY]LPEFSWPESFVLFLRQRQRQLGRGAEC-NH2 (linker I:28-II:28 via X1) [MuSK1Ac Term PEG11 dimer]”, at human MuSK, the koff was 0.0018 s⁻¹ and the kon was determined as 520000 M⁻¹ s⁻¹.

As for “I: Ac-[dY]LPEFSWPESFVLFLRQRQRQLGRGAEC-NH2 / II: Ac-[dY]LPEFSWPESFVLFLRQRQRQLGRGAEC-NH2 (linker I:28-II:28 via X2) [MuSK1Ac Term PEG3 dimer]”, at human MuSK, the koff was 0.0012 s⁻¹ and the kon was 200000 M⁻¹ s⁻¹.
